# Source: ChEMBL document CHEMBL1201862, “PubChem BioAssay data set” (2004)
# Values joined by “and” are separate entries in the source; they are usually repeats but may differ in a detail not shown here. Equal entries are not always repeated. Active and inactive are the calls of the source.
# Target: Cytochrome P450 2C19 (Homo sapiens, UniProt P33261)
# Experiment: Cytochrome panel assay with activity outcomes. Panel member name: p450-cyp2c19 Compounds with AC50 equal or less than 10 uM are considered active
# Assay type: functional
# Details: read-out: AC50
# Chain of Cytochrome P450 2C19 (P33261 whole entry): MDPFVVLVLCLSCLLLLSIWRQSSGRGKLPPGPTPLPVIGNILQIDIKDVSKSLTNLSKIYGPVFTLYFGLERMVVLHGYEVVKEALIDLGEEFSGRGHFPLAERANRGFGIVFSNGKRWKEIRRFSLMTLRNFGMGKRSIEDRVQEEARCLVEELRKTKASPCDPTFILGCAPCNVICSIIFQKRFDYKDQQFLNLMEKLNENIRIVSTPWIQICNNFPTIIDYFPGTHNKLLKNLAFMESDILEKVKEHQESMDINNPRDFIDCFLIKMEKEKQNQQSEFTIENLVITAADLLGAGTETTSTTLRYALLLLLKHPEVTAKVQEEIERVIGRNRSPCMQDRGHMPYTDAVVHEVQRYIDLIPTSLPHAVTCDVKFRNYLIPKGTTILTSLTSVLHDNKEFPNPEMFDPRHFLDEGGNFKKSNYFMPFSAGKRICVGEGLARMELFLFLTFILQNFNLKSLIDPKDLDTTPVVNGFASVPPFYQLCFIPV
row,AC50,Compound
1,22.4 µM (inconclusive),CC(C)n1c(N2CCN(C(=O)Nc3ccccc3)CC2)nc2ccccc21
2,11.2 µM (inconclusive),CCOc1ccc(N2C(=O)CN=C2Nc2ccccc2Cl)cc1

# Target: Paired box protein Pax-8 (Homo sapiens, UniProt Q06710)
# Sequence (Q06710 whole entry): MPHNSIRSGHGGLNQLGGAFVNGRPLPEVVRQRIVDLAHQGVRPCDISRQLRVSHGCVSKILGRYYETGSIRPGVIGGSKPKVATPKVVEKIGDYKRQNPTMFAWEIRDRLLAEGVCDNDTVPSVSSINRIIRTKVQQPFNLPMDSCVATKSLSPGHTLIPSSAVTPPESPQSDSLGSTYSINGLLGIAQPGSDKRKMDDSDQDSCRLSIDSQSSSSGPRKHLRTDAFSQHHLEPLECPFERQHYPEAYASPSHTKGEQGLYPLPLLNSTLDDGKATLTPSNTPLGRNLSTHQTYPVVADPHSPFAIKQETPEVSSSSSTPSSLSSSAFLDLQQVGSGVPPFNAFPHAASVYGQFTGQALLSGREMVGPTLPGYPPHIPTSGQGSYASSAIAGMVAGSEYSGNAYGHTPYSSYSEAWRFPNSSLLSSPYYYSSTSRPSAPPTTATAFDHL
# Experiment: PAX8 transcriptional activity inhibition in RMG-I – RMG-I cells, luciferase, cherry-pick, dose response (AID 687027);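 note: luciferase reporter driven by Pax8 target thyroperoxidase promoter measured by SteadyGlo luminescence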
# Assay type: functional, cell-based
# Details: not given
row,AC50,Compound
1,23.7 µM (active),O=C(C[C@H]1CC[C@H]2[C@@H](COC[C@@H](O)CN2S(=O)(=O)c2ccccc2Cl)O1)N1CCC(Cc2ccccc2)CC1
2,8.05 µM (active),C[C@@H]1CCCCO[C@H](CN(C)C(=O)Cc2ccccc2)[C@H](C)CN([C@@H](C)CO)C(=O)c2cc(NC(=O)Nc3ccc(C(F)(F)F)cc3)ccc2O1

row,Compound,AC50
1,CC(=CCOc1ccc2ccc(=O)oc2c1)C1=CC(=O)C(C)(C)O1,4.95 µM (active)

# Target: Cytochrome P450 2D6 (Homo sapiens, UniProt P10635);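 note: CYP2D6 member of a cytochrome P450 panel assay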
# Sequence (P10635 whole entry): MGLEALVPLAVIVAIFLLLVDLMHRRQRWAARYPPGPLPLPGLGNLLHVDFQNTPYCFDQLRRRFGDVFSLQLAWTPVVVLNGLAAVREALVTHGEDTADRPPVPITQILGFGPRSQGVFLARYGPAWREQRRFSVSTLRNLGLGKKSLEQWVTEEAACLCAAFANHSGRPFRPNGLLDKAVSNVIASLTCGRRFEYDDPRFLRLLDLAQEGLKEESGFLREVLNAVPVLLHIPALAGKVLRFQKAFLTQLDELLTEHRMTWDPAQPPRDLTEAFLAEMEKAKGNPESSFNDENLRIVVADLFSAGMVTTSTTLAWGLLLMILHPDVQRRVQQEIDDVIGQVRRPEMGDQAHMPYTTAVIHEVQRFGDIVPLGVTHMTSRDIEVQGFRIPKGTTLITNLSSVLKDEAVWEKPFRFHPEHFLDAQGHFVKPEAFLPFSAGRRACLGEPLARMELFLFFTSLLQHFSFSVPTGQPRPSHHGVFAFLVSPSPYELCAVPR
# Details: not given
row,AC50,Compound
1,15.8 µM (inconclusive),C[C@H](CO)NC(=O)[C@H](C)[C@H]1C[C@]1(C)[C@H](NC(=O)OCc1ccccc1)c1ccccc1
2,3.16 µM (inconclusive),O=C(CSc1nccn1-c1ccccc1)c1ccc(Cl)cc1
3,3.16 µM (inconclusive),C/C(CCN1CCc2nc(-c3ccccc3)c(-c3ccccc3)cc2C1)=N\O[C@@H](C)CN1CCCc2nc(C)c(C)cc21
4,25.1 µM (inconclusive),C=CCSc1nn2c(=O)c3ccccc3nc2s1

# Target: T1, Cytochrome P450 1A2 (Homo sapiens, UniProt P05177);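 note: PubChem cytochrome P450 panel assay, CYP1A2 panel member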
# T1 sequence (P05177 whole entry): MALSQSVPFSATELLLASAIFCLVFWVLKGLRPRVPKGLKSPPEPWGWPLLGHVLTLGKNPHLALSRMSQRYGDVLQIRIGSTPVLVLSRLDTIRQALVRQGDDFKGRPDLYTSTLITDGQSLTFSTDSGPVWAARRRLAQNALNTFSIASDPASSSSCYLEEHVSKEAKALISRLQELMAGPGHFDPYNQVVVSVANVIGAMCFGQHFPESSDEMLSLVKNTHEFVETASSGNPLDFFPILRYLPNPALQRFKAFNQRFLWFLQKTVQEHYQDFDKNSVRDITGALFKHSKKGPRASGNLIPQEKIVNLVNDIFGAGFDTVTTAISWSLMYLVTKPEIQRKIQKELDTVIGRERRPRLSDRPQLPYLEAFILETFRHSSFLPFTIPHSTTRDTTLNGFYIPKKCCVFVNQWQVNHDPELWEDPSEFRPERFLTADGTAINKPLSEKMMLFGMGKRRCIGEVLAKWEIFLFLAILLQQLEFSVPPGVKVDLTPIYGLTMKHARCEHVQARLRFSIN
# Details: not given
row,Compound,AC50
1,CC(C)(C)c1ccc(NS(=O)(=O)c2ccc(N)cc2)cc1,3.16 µM (inconclusive)
2,COC(=O)[C@@]1(Cc2ccccc2)[C@H]2c3cc(C(=O)N(C)C)n(Cc4c(CO)ncc(C)c4O)c3C[C@H]2CN1C(=O)c1ccccc1,25.1 µM (inconclusive)
3,Cc1cc(OCC(F)(F)C(F)(F)C(F)(F)C(F)(F)C(F)(F)C(F)F)nc(N)n1,28.2 µM (inconclusive)
4,O=C(CNC(=O)c1ccco1)OC(C(=O)c1ccccc1)c1ccccc1 (configuration not stated),15.8 µM (inconclusive)
5,O=c1cc(-c2ccc(O)cc2)oc2c([C@H]3O[C@@H](CO)[C@@H](O)[C@@H](O)[C@@H]3O)c(O)cc(O)c12,20 µM (inconclusive)
6,CCCCCCc1c(O)noc1C[C@H](N)C(=O)O,25.1 µM (inconclusive) and 31.6 µM (inconclusive)
7,O=C(O)c1cc([N+](=O)[O-])ccc1NCCCc1ccccc1 [5-NITRO-2-PHENYLPROPYLAMINOBENZOIC ACID [NPPB]],39.8 µM (inconclusive)

# The next lines start with the values.
row,AC50,Compound
1,20 µM (inconclusive),N#Cc1cccc(NC(=O)N2CCCC3(CCN(C(=O)c4cnccn4)CC3)C2)c1
2,5.01 µM (inconclusive),CCC(=O)[C@@H](c1ccccc1)c1ccccn1
3,20 µM (inconclusive),Cn1cccc1C(=O)N1CCC2(CC1)CCN(c1cccc(-c3ccccc3)c1)CC2
4,25.1 µM (inconclusive),CC(C)n1c(N2CCN(C(=O)Nc3ccccc3)CC2)nc2ccccc21

# Target: Cytochrome P450 3A4 (Homo sapiens, UniProt P08684);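 note: CYP3A4 tested as one member of a cytochrome P450 panel screen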
# Sequence (P08684 whole entry): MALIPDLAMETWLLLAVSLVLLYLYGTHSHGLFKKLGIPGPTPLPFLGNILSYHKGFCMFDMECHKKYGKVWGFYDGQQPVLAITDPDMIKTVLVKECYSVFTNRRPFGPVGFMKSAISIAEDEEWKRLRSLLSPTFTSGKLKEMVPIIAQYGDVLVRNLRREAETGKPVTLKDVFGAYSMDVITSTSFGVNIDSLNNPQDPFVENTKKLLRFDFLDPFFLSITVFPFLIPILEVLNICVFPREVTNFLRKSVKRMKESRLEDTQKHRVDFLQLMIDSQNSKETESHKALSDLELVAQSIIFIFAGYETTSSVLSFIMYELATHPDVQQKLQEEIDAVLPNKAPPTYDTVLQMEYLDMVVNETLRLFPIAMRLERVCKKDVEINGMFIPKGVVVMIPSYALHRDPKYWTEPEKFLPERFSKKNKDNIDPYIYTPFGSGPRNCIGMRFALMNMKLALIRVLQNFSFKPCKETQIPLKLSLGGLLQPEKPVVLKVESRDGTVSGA
# Details: not given
row,Compound,AC50
1,CC(C)(C)c1ccc(NS(=O)(=O)c2ccc(N)cc2)cc1,1 µM (inconclusive)
2,O=C(CNC(=O)c1ccco1)OC(C(=O)c1ccccc1)c1ccccc1 (configuration not stated),28.2 µM (inconclusive)
3,CCOc1ccc(N2C(=O)CN=C2Nc2ccccc2Cl)cc1,15.8 µM (inconclusive)

# Next, values leading:
row,AC50,Compound
1,15.8 µM (inconclusive),N#Cc1cccc(NC(=O)N2CCCC3(CCN(C(=O)c4cnccn4)CC3)C2)c1
2,3.98 µM (inconclusive),C/C(CCN1CCc2nc(-c3ccccc3)c(-c3ccccc3)cc2C1)=N\O[C@@H](C)CN1CCCc2nc(C)c(C)cc21

# Target: Cytochrome P450 2C9 (Homo sapiens, UniProt P11712)
# Sequence (P11712 whole entry): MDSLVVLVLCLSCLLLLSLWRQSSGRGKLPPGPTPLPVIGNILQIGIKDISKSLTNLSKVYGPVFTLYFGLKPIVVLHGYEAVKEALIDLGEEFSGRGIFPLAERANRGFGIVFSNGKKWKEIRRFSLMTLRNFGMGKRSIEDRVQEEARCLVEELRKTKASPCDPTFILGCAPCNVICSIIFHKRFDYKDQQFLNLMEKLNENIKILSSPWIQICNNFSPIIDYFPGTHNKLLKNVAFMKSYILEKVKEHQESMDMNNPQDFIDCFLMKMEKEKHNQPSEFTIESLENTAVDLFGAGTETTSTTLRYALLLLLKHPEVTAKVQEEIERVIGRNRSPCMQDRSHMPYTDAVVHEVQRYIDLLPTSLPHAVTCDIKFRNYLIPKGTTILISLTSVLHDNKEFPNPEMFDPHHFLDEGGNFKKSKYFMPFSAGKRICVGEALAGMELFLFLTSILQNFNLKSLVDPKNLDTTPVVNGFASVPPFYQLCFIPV
# Details: not given
row,Compound,AC50
1,Cc1ccc(S(=O)(=O)N(CC(=O)N/N=C/c2ccc(F)cc2)c2cccc3cccnc23)cc1,1.58 µM (inconclusive)
2,CCOC(=O)C1=C(N)n2c(s/c(=C/c3ccccc3)c2=O)=C(C(=O)OCC)C1c1ccccc1 (configuration not stated),2.82 µM (inconclusive)
3,COc1cccc(-c2ccc3ncnc(NCc4cccs4)c3c2)c1,0.631 µM (inconclusive)
4,C/C(=N/NC(=O)Cc1cccn1C)c1ccccc1,25.1 µM (inconclusive)
5,O=Nc1ccc(NOC(=O)c2ccc(Br)cc2)cc1,25.1 µM (inconclusive)
6,O=C1Oc2ccccc2C2(O)C3CCCCCC3C12 (configuration not stated),22.4 µM (inconclusive)
7,C=CCSc1nn2c(=O)c3ccccc3nc2s1,25.1 µM (inconclusive)

# The remaining lines, values ahead:
row,AC50,Compound
1,25.1 µM (inconclusive),C[C@H](CO)NC(=O)[C@H](C)[C@H]1C[C@]1(C)[C@H](NC(=O)OCc1ccccc1)c1ccccc1
2,3.98 µM (inconclusive),O=C(CSc1nccn1-c1ccccc1)c1ccc(Cl)cc1
3,17.8 µM (inconclusive),COc1cc2c(cc1OC)C(C(=O)N1CCN(c3ccccn3)CC1)C(c1cccs1)N(C)C2=O (configuration not stated)
4,39.8 µM (inconclusive),CC(=O)Nc1ccc(C(=O)NNC(=O)CCc2ccccc2)cc1
5,7.94 µM (inconclusive),O=C(O)[C@H]1CCc2ccc3ccccc3c2[C@H]1c1cccc2ccccc12
